Results on one molecule are retold here after patent US20220000848A1, “APPLICATION OF CHIDAMIDE” (SHENZHEN CHIPSCREEN BIOSCIENCES CO., LTD., priority 2018, published 2022).

Experiment [1] deals with relapsed or refractory B cell lymphoma. The experiment in a line: Phase II clinical trial of Chidamide monotherapy in relapsed or refractory B cell lymphoma. The note with it: patients, oral 30 mg 2 times a week; 8 cases evaluated of 10 enrolled. The class given is in vivo, human. On the procedure: (§1) Test drugs: Chidamide tablets: off-white tablets, 5 mg/tablet. Produced by Shenzhen Chipscreen Biosciences Co., Ltd.
(§2) Dosage regimen: 2 times a week, 30 mg each time, the interval of two administrations should not be less than 3 days (for example, on Monday and Thursday, Tuesday and Friday, Wednesday and Saturday, etc.). The administration was performed 30 minutes after breakfast, every 3 weeks was a treatment cycle. During the entire study, all subjects should unceasingly receive the treatment under study until the appearance of any one of the following conditions: progression of disease, intolerable adverse reaction, death, withdrawal from treatment, withdrawal of the informed consent or loss to follow-up.
Number of cases: Simon's optimal two-stage design was adopted, 72 patients were enrolled, and pathological subtypes included: follicular lymphoma (FL) grade 1, grade 2 or grade 3, marginal zone B-cell lymphoma (MALT), lymphoplasmacytic lymphoma (LPL), small lymphocyte B cell lymphoma (SLL), diffuse large B cell lymphoma (DLBCL).
The patients were orally administrated with Chidamide according to the aforementioned dosage regimen, and the safety- and efficacy evaluation were performed as required at the specified time.
Efficacy evaluation time: efficacy evaluation was performed once every 6 weeks. […]

In experiment [2] the test system is relapsed or refractory follicular lymphoma (FL) accompanied with specific epigenetic regulatory gene mutation. The experiment in a line: Multicenter, single-arm, open clinical trial of Chidamide tablet in relapsed or refractory follicular lymphoma with CREBBP and/or EP300 mutation (pre-test). To be noted: 11 patients accompanied with epigenetic mutation B-NHL, oral 30 mg 2 times a week. Format: in vivo, human. On the procedure: as §1
as §2, with “follow-up. […]” for “follow-up.”
4. Having CREBBP and/or EP300 specific genetic mutation that was confirmed by second-generation sequencing;
Patients were orally administrated with Chidamide according to the regimen, and the following safety- and efficacy follow-ups were performed at the specified times:
Follow-up interval: Efficacy assessment was carried out once every 6 weeks; and efficacy follow-up was performed at the end of treatment.
Efficacy evaluation means: Evaluation of lymph nodes and organ lesions, skin lesions was performed by imaging methods (CT or PET/CT), clinical examination, bone marrow puncture and biopsy. The imaging methods used for patients must be the same at all follow-up points. […]

In experiment [1], `Nc1cc(F)ccc1NC(=O)c1ccc(CNC(=O)/C=C/c2cccnc2)cc1` [Chidamide] displayed an ORR of 37.5% and a benefit rate of 62.5%. In addition, in experiment [2], the CR came to 36.3% and the ORR was determined as 72.7%.
